From patent US11351185B2, “Use of isovalerylspiramycins as anti-cancer agents to inhibit metastasis” (priority 2020, dated 2022)
“Also recorded” adds a separate entry of the source.

What was measured:
[1] = test system: SELH-deficient LN229 cells; assay: CCK8 assay in SELH-deficient (CRISPR/CAS9) LN229 cells; format: cell-based; settings: LN229 SELH knock out
Description: SELH knockout LN229 cell lines and B16 were generated using the CRISPR/Cas9 technique described by Shalem et al., Science 343: 84 (2014). The gDNA for targeting SELH was designed as follows: Oligo 1, 5′-[…]-3′; Oligo 2, 5′-[…]-3′; the gDNA for targeting mouse SELH was designed as follows: Oligo 1, 5′-[…]-3′; Oligo 2, 5′-[…]-3′, and subcloned into Cas9 carrying vector (pX330). The two resultant plasmids and puromycin-expressing vector (pPGK-puro) were co-transfected at a ratio of 1:1:1 into LN229 or B16 cells using Lipofectamine 2000 (Invitrogen). Twenty-four hours later, the transfected cells were subjected to puromycin (Sigma) at 1 μg/mL for 7 days. One week after selection, the surviving clones were expanded, followed by extraction of total protein for standard western blotting analysis.
Cell viability was measured by Cell Counting Kit-8 (CCK-8, Dojindo Molecular Technologies, Tokyo, Japan). Cells were seeded in 96-well plates at a density of 3×10^3 cells/well and cultured for 24 hours before treatment with ISP I at different concentration. […] The absorbance in each well at a wavelength of OD450 was detected by the Synergy H1 microplate reader, a product of BioTek (Winooski, Vt. USA).

LN229 and U251 cells = assay: Annexin V apoptosis flow cytometry, glioblastoma cells; format: cell-based
Method: To assess the cytotoxicity of ISPs I, II and III, five glioblastoma cell lines, T98G, U118, A172, LN229 and U251, were treated with serial doses of each ISP, respectively, for 48 hours. Cell viability of these cell lines were evaluated by CCK8 assay, and the 50% inhibitory concentration (IC50) was calculated (FIG. 2A, B and FIG. 3). […] Cell distribution in each phase of the cell cycle was assessed in LN229 and U251 cells by flow cytometry, followed by EdU and DAPI staining.
Cells (2×10^5) were plated in 6-well plates and treated with different concentrations of ISP I. Then the cells were harvested and washed three times with PBS. Cells were resuspended in 100 μl binding buffer and were incubated with 5 μl APC-conjugated Annexin V working solution, a product of BD bioscience (Franklin Lakes, N.J. USA), and 1 μl propidium iodide (PI), a product of Invitrogen, for 15 min at room temperature with protection from light. Data acquisition and quantification were processed with BD LSRFortessa flow cytometer, using FlowJo software (Ashland, Oreg. USA).

SELH [2] = molecular target: T1, SELH (Homo sapiens, UniProt Q8IZQ5); assay: Cellular thermal shift assay (CETSA) / thermo-stability assay; format: binding; set-up: endogenous in cells; host or cells: LN229, 786-O; settings: vs DMSO
T1 sequence (Q8IZQ5 1-122): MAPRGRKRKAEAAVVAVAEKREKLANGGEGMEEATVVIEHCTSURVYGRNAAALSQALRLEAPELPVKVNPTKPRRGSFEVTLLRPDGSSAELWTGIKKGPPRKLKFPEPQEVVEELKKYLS
Description: Next, the inventors used a thermo-stability assay to confirm SELH was targeted by ISP I in LN229 and 786-O cell lines. The principle of the assay is based on altered protein thermal stabilization/destabilization due to ligand binding in living cells. […] (FIG. 5B and FIG. 6A). To verify further the specificity of ISP I's targeting of SELH, the inventors designed a surface plasmon resonance assay to assess the interaction of ISP I with SELH synthesized in bacteria.
CETSA experiments were performed to determine the ISP I-related ligand induced shifts. Intact and live cells in a 10-cm dish were harvested, washed and resuspended in PBS with protease inhibitor cocktail. Protein of the cells was extracted by freeze-thaw more than three times, using liquid nitrogen. The supernatant was centrifuged at 20, 000 g for 20 min at 4° C. Then the samples were aliquoted to several groups incubated with different concentrations of ISP I for 1 hour. After that, samples were aliquoted into PCR tubes and thereafter heated at gradient temperature ranging from 40° C. to 80° C. for 3 min. Then the samples were centrifuged again and resolved using 4-12% SDS-PAGE followed by western blot experiments.

SELH [3] = molecular target: T1, SELH; assay: Western blot of SELH protein level in treated cells; format: cell-based; set-up: endogenous in cells; host or cells: LN229, 786-O, T98G, U118, U251, RCC4; settings: for SELH protein expression, different concentrations: LN229 cells, 24 hours post-treatment
Method: A cycloheximide (CHX) chase assay was completed to assess ISP I's effect on SELH protein degradation.
Western blotting was performed to detect the protein expression level of SELH, NRF2 and γH2AX regulated by ISP I. The cells were lysed by RIPA buffer from ThermoFisher Scientific, and the concentration was measured using DC Protein Assay, a Bio-Rad product. Equal amounts of protein of each sample were loaded for gel electrophoresis and were transferred to nitrocellulose membrane, blocked and incubated overnight at 4° C. with primary antibodies. Then the membranes were washed with TBST (3 times, 10 min each). Exposure, imaging, and data analysis were done using a KwikQuant Imager system, a product of Kindle Biosciences (Greenwich, Conn. USA). The following antibodies were used: anti-phospho-histone H2A.X (Ser139), anti-NRF2 (Cell Signaling, Danvers, Mass. USA), anti-SELH (Abcam, Cambridge, Mass. USA), anti-GAPDH (Millipore, Temecula, Calif. USA).

[4] = test system: pre-rRNA (POL1 transcript); assay: pre-rRNA transcription, real-time RT-PCR; format: cell-based; settings: LN229 cells
Method: SELH is localized in the nucleolus, which is a sensor of oxidative stress. Yang et al., Nature communications 7: 13599 (2016); Novoselov et al., J. Biol. Chem. 282: 11960 (2007). […] JNK2 activation by oxidative stress inactivated RNA polymerase I (POL1) transcription factor TIF1A in the nucleoli to down-regulate rRNA synthesis. Mayer et al., Genes Dev. 19: 933 (2005). To investigate whether the ribosomal biogenesis was disrupted by ISP I, pre-rRNA transcription was evaluated using real-time RT-PCR analysis in LN229 cells. […] To examine the mechanisms by which ISP I disrupts POL1 transcription, the inventors initially evaluated JNK2 activity and the overall state of the transcription machinery in ISP I-treated LN229 cells.

SMILES: COC1C(O)CC(=O)OC(C)CC=CC=CC(OC2CCC(N(C)C)C(C)O2)C(C)CC(CC=O)C1OC1OC(C)C(OC2CC(C)(O)C(OC(=O)CC(C)C)C(C)O2)C(N(C)C)C1O (stereo not drawn) [ISP I, 4″-isolvalerylspiramycin I]
- sensitivity of SELH-deficient cells vs wild type (CCK8) [1]: resistance to ISP I; also recorded: SELH-deficient cells were resistant to ISP I treatment
- apoptosis (Annexin V stain) (LN229 and U251 cells): induced a dose-dependent apoptosis
- thermal stabilisation of SELH (western blot) (SELH [2]; 786-O cells): ISP I-protected SELH was observed along with a rise in temperature; also recorded: protective effect of ISP I on SELH was present over a range of increasing temperatures
- thermal stabilisation of SELH (western blot) (SELH [2]; LN229 cells): ISP I-protected SELH was observed along with the rise of temperature; also recorded: protective effect of ISP I on SELH was present over a range of increasing temperatures
- SELH protein levels in RCC cell lines (SELH [3]; 786-O and RCC4, 10 μg/ml, 24 hours): decreased SELH levels; also recorded: inhibitory effect on SELH expression also was confirmed
- SELH protein expression, different concentrations (SELH [3]): reduced SELH protein expression in LN229 cells in a dose-dependent manner
- SELH protein expression, different concentrations (SELH [3]; listed as ISP 1): decline, in a dose-dependent manner, of SELH levels
- SELH protein levels in glioblastoma cell lines (SELH [3]; T98G, U118, LN229, U251, 10 μg/mL, 24 hours): decreased SELH levels; also recorded: inhibitory effect on SELH expression also was confirmed
- pre-rRNA transcription [4]: decreased pre-rRNA transcription in a dose-dependent manner; also recorded: reduced Pre-rRNA (PoL1 transcript) in a dose-dependent manner
